Measurements as given in the PolyMetriX glass transition set.
± gives the standard deviation of the reports.

Work on `*CN1C(=O)c2ccc(C(c3ccc4c(c3)C(=O)N(Cc3nc5ccc(Cc6ccc7nc(*)oc(=O)c7c6)cc5c(=O)o3)C4=O)(C(F)(F)F)C(F)(F)F)cc2C1=O` (repeat unit) yielded a glass transition temperature of 218.00 °C.
`*c1ccc2c(c1)C(=O)N(c1ccc(-c3ccc(N4C(=O)c5ccc(C(*)(C(F)(F)F)C(F)(F)F)cc5C4=O)c(O)c3)cc1O)C2=O` (repeat unit) showed a glass transition temperature of 358.00 °C.
`*Oc1ccc(-c2cc(-c3ccccc3)c(-c3ccc(OC(=O)c4ccc(C(*)=O)cc4-c4ccccc4)cc3)c(-c3ccccc3)c2-c2ccccc2)cc1` (repeat unit) showed a glass transition temperature of 225.00 °C.
With `*CC(*)N1CCCC1=O` (repeat unit) [Poly(N-vinyl pyrrolidone)] the glass transition temperature was 145 ± 7.9 °C.
For `*CCCCCCN1C(=O)c2ccc(Oc3ccc4c(c3)C(=O)N(*)C4=O)cc2C1=O` (repeat unit), the glass transition temperature was 164.00 °C.
With `*Oc1ccc(S(=O)(=O)c2ccc(OC(=O)c3ccc([Si](C)(C)c4ccc(C(*)=O)cc4)cc3)cc2)cc1` (repeat unit) the glass transition temperature was 235.00 °C.
With `*Nc1cccc(NC(=O)c2cc(NC(=O)C34CC5CC(CC(C5)C3)C4)cc(C(*)=O)c2)c1` (repeat unit) the glass transition temperature was 365.00 °C.
For `*Oc1ccc(CC(C#N)(C#N)Cc2ccc(*)cc2)cc1` (repeat unit), the glass transition temperature was 147.00 °C.
`*Oc1ccc(C(C)(C)c2ccc(OC(=O)OCCN(CCOC(*)=O)c3ccc4[nH]c5ccccc5c4c3)cc2)cc1` (repeat unit) showed a glass transition temperature of 90.00 °C.
For `*/C=C/c1cc(OCC(CC)CCCC)c(*)cc1OC` (repeat unit), the glass transition temperature was 79.00 °C.
`*C1CCC(CC2CCC(N3C(=O)c4ccc(-c5ccc6c(c5)C(=O)N(*)C6=O)cc4C3=O)C(C)C2)CC1C` (repeat unit) showed a glass transition temperature of 260.00 °C.
`*Oc1ccc(C(CC)c2ccc(OC(*)=S)cc2)cc1` (repeat unit) gave a glass transition temperature of 104.00 °C.
With `*CC(*)(C)C(=O)OCc1ccc[se]1` (repeat unit) the glass transition temperature was 56.00 °C.
Molecule `*c1ccc(-c2nc3cc4sc(*)nc4cc3s2)cc1` (repeat unit) has a glass transition temperature of 25.00 °C.
With `*c1ccc(S(=O)(=O)c2ccc(N3C(=O)c4ccc(Oc5ccc6c(c5)C(=O)N(*)C6=O)cc4C3=O)cc2)cc1` (repeat unit) the glass transition temperature was 286.00 ± 34 °C.
In the case of `*CC(O)COc1ccc(C2CCCC(CC)(c3ccc(O*)cc3)C2)cc1` (repeat unit), the glass transition temperature is reported as 140.00 °C.
`*Oc1cccc2cc(OC(=O)c3ccc(Oc4ccc(C(*)=O)cc4)cc3)ccc12` (repeat unit) showed a glass transition temperature of 179.00 °C.
In the case of `*Oc1ccc(Oc2ccc(NC(=O)c3cc(C(=O)Nc4ccc(*)cc4)cc(C(C)(C)C)c3)cc2)cc1` (repeat unit), the glass transition temperature is reported as 195.50 °C.
Molecule `*c1ccc(Oc2ccc(-c3c(-c4ccccc4)nc4ccc(Oc5ccc6nc(-c7ccccc7)c(*)c(-c7ccccc7)c6c5)cc4c3-c3ccccc3)cc2)cc1` (repeat unit) has a glass transition temperature of 252.50 °C.
`*CC(*)c1ccc(C(=O)OCCCC)cc1` (repeat unit) showed a glass transition temperature of 76.00 °C.
Molecule `*c1ccc2oc(-c3ccc4oc5ccc(-c6nc7cc(C(*)(C(F)(F)F)C(F)(F)F)ccc7o6)cc5c4c3)nc2c1` (repeat unit) has a glass transition temperature of 195.00 °C.
In the case of `*CC(*)(C)C(=O)OCCCCCCCCCCCCOc1ccc2cc(C(=O)Oc3ccccc3)ccc2c1` (repeat unit), the glass transition temperature is reported as 12.00 °C.
Molecule `*Oc1ccc2ccc(OC(=O)c3ccc(Oc4ccc(C(*)=O)cc4)cc3)cc2c1` (repeat unit) has a glass transition temperature of 142.00 °C.
`*CCOCC(CCl)O*` (repeat unit) showed a glass transition temperature of -40.00 °C.
Molecule `*C(=O)c1ccc2c(c1)C(=O)N(c1cccc(OCCOCCOc3cccc(N4C(=O)c5ccc(*)cc5C4=O)c3)c1)C2=O` (repeat unit) has a glass transition temperature of 155.00 °C.
Molecule `*CC(*)(C)C(=O)OCCOCCOCCOc1ccc(/N=N/c2ccc(C#N)cc2)cc1` (repeat unit) has a glass transition temperature of 37.00 °C.
With `*c1ccc(-c2nc3ccc(Oc4ccc5nc(*)c(-c6ccccc6)c(-c6ccccc6)c5c4)cc3c(-c3ccccc3)c2-c2ccccc2)cc1` (repeat unit) the glass transition temperature was 345.00 °C.
`*CC(CCCCCCCCCC)O*` (repeat unit) gave a glass transition temperature of -41.00 °C.
Molecule `*CNC(=O)OCc1ccc(COCc2ccc(COC(=O)NCc3ccc(C(C)(C)c4ccc(*)o4)o3)o2)o1` (repeat unit) has a glass transition temperature of 39.00 °C.
In the case of `*CC#CCOC(=O)CCCCCCCCC(=O)O*` (repeat unit), the glass transition temperature is reported as -26.50 °C.
In the case of `*Oc1ccc(C(C)(C)c2ccc(OC(*)(Oc3ccccc3)Oc3ccccc3)cc2)cc1` (repeat unit), the glass transition temperature is reported as 92.00 °C.
For `*C(=O)Nc1ccc(S(=O)(=O)c2ccc(NC(=O)c3ccc4c(c3)C(=O)N(c3cccc(N5C(=O)c6ccc(*)cc6C5=O)c3)C4=O)cc2)cc1` (repeat unit), the glass transition temperature was 342.00 °C.
`*c1cccc(Oc2cccc(-n3c(=O)c4cc5c(=O)n(*)c(=O)c5cc4c3=O)c2)c1` (repeat unit) showed a glass transition temperature of 285.2 ± 2.5 °C.
With `*c1ccc(Cc2ccc(N3C(=O)c4ccc(Oc5ccc6c(c5)C(=O)N(*)C6=O)cc4C3=O)c(C(C)(C)C)c2)cc1C(C)(C)C` (repeat unit) the glass transition temperature was 216.00 °C.
With `*NNC(=O)c1ccc(C(*)=O)cc1OCCCCCCCC` (repeat unit) the glass transition temperature was 203.50 °C.
Molecule `*CCOCCOc1cccc(NC(=O)c2cccc(C(=O)Nc3cccc(O*)c3)c2)c1` (repeat unit) has a glass transition temperature of 128.50 °C.
For `*NC1CCC(CC2CCC(NC(=O)CCCCCCCCCCCCC(*)=O)CC2)CC1` (repeat unit), the glass transition temperature was 131.00 °C.
In the case of `*C[Si](*)(CCCCC)CCCCC` (repeat unit), the glass transition temperature is reported as -55.00 °C.
`*CC(*)(C)C(=O)OCc1cc(Cl)ccc1Cl` (repeat unit) showed a glass transition temperature of 27.80 °C.
With `*c1ccc(Oc2cccc(N3C(=O)c4ccc(Oc5ccc6cc(Oc7ccc8c(c7)C(=O)N(*)C8=O)ccc6c5)cc4C3=O)c2)cc1` (repeat unit) the glass transition temperature was 225.00 °C.
Molecule `*C(=O)c1ccc2c(c1)C(=O)N(c1cc(C(c3ccc(O)c(N4C(=O)c5ccc(*)cc5C4=O)c3)(C(F)(F)F)C(F)(F)F)ccc1O)C2=O` (repeat unit) has a glass transition temperature of 315.00 °C.
Molecule `*CC(*)c1ccccc1C(=O)OCCCCCC` (repeat unit) has a glass transition temperature of 45.00 °C.
In the case of `*Oc1ccc(C(=O)NNC(=O)c2ccc(C(=O)NNC(=O)c3ccc(OC(=O)c4cccc(C(*)=O)c4)cc3)cc2)cc1` (repeat unit), the glass transition temperature is reported as 175.00 °C.
`*CC(=O)Nc1ccc(Oc2ccc(S(=O)(=O)c3ccc(Oc4ccc(NC(=O)CN5C(=O)c6ccc(C(c7ccc8c(c7)C(=O)N(*)C8=O)(C(F)(F)F)C(F)(F)F)cc6C5=O)cc4)cc3)cc2)cc1` (repeat unit) showed a glass transition temperature of 241.00 °C.
With `*CCC(=O)N*` (repeat unit) [Poly(propano-3-lactam)] the glass transition temperature was 128.17 ± 24 °C.
Work on `*CC(COc1ccc(C2CCCC(CC)(c3ccc(O*)cc3)C2)cc1)OC(C)=O` (repeat unit) yielded a glass transition temperature of 107.00 °C.
In the case of `*c1ccc(Sc2ccc3c(c2)Sc2ccc(Sc4ccc(-n5c(=O)c6cc7c(=O)n(*)c(=O)c7cc6c5=O)cc4)cc2S3)cc1` (repeat unit), the glass transition temperature is reported as 254.8 °C.
With `*c1ccc(Oc2ccc(-c3nc4cc(Oc5ccc(NC(=O)CN6C(=O)c7ccc(C(c8ccc9c(c8)C(=O)N(CC(=O)Nc8ccc(Oc%10ccc%11nc(-c%12ccccc%12)c(*)nc%11c%10)cc8)C9=O)(C(F)(F)F)C(F)(F)F)cc7C6=O)cc5)ccc4nc3-c3ccccc3)cc2)cc1` (repeat unit) the glass transition temperature was 260.00 °C.
In the case of `*CCCOCCCCOCCCN1C(=O)c2ccc(C(=O)Oc3ccc(-c4ccc(OC(=O)c5ccc6c(c5)C(=O)N(*)C6=O)cc4)cc3)cc2C1=O` (repeat unit), the glass transition temperature is reported as 70.00 °C.
Molecule `*CCCCCCCCCCCCNC(=O)CCCCCCCCCCCCCCCCC(=O)N*` (repeat unit) has a glass transition temperature of 46.50 °C.
`*C(=O)Nc1ccc(Oc2ccccc2-c2ccccc2Oc2ccc(NC(=O)c3ccc4c(c3)C(=O)N(c3ccc(Cc5ccc(N6C(=O)c7ccc(*)cc7C6=O)cc5)cc3)C4=O)cc2)cc1` (repeat unit) gave a glass transition temperature of 240.00 °C.
Work on `*CCCCCCOC(=O)OCCCCOC(=O)OCCCCCCOc1ccc(Oc2ccc(O*)cc2)cc1` (repeat unit) yielded a glass transition temperature of -8.00 °C.
With `*C1CCC(CC2CCC(N3C(=O)c4ccc(Oc5ccc6c(c5)C(=O)N(*)C6=O)cc4C3=O)C(C)C2)CC1C` (repeat unit) the glass transition temperature was 250.00 °C.
Work on `*c1c(C)cc(Cc2cc(C)c(N3C(=O)c4cccc(Oc5c(C)cc(-c6cc(C)c(Oc7cccc8c7C(=O)N(*)C8=O)c(C)c6)cc5C)c4C3=O)c(C)c2)cc1C` (repeat unit) yielded a glass transition temperature of 289.00 °C.
For `*CCCCCCNC(=O)CCCCC(=O)NCC(=O)N*` (repeat unit), the glass transition temperature was 53.40 °C.
In the case of `*Oc1ccc(C(*)=O)cc1` (repeat unit) [Poly(p-hydroxybenzoate)], the glass transition temperature is reported as 147 ± 8.5 °C.
Molecule `*CC(O)CN(CCO)S(=O)(=O)c1ccc(-c2ccc(S(=O)(=O)N(CCO)CC(O)COc3ccc(C(C)(C)c4ccc(O*)cc4)cc3)cc2)cc1` (repeat unit) has a glass transition temperature of 76.00 °C.
For `*c1ccc(Oc2ccc(C(=O)c3cccc(C(=O)c4ccc(Oc5ccc(-c6nc(-c7cccc(-c8nc(*)c(-c9ccccc9)[nH]8)c7)[nH]c6-c6ccccc6)cc5)cc4)c3)cc2)cc1` (repeat unit), the glass transition temperature was 256.50 °C.
In the case of `*Sc1ccc(Sc2ccc(Sc3ccc(P(=O)(c4ccccc4)c4ccc(*)cc4)cc3)cc2)cc1` (repeat unit), the glass transition temperature is reported as 175.00 °C.
`*c1ccc(Oc2ccc(N3C(=O)c4ccc(Oc5cc6ccccc6cc5Oc5ccc6c(c5)C(=O)N(*)C6=O)cc4C3=O)cc2)cc1` (repeat unit) showed a glass transition temperature of 220.50 °C.
`*Oc1ccc(C(c2ccccc2)c2ccc(OC(*)=O)cc2C)c(C)c1` (repeat unit) gave a glass transition temperature of 182.00 °C.
With `*CC(*)c1cc(C)ccc1C` (repeat unit) [Poly(2,5-dimethyl styrene) ] the glass transition temperature was 143 ± 0.6 °C.
Work on `*Oc1ccc(P(C)(=O)c2ccc(Oc3ccc(P(=O)(c4ccccc4)c4ccc(*)cc4)cc3)cc2)cc1` (repeat unit) yielded a glass transition temperature of 238.00 °C.
For `*c1ccc(Oc2ccc(Oc3ccc(N4C(=O)c5ccc(-c6ccc7c(c6)C(=O)N(*)C7=O)cc5C4=O)cc3)c(C(C)(C)C)c2)cc1` (repeat unit), the glass transition temperature was 274.00 °C.
